pEC50: −log10 of the molar value.
Target: T1, human GPR119 (hGPR119) (Homo sapiens, UniProt Q8TDV5)
T1 construct: expressed in transfected cells
T1 sequence (Q8TDV5 1-335): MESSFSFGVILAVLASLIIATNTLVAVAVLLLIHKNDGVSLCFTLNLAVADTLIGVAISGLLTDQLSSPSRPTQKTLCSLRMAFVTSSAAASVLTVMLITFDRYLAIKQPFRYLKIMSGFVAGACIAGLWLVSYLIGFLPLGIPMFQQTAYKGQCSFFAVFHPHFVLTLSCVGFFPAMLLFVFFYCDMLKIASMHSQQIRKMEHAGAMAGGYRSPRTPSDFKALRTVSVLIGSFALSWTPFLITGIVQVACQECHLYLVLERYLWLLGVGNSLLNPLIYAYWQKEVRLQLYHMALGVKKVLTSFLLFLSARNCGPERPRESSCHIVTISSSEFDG
Experiment: cAMP accumulation assay (cAMP Gs dynamic HTRF kit)
Type: cell-based
Settings: CHO-K1 cells stably expressing hGPR119, 4-parameter fit; for Emax: 1 h, % activity normalized to Max/Min controls; for pEC50: cAMP accumulation
Method in brief: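 CHO-K1 cells stably expressing hGPR119, used as assay-ready frozen stocks at ~10,000 cells/well, exposed to compound dose-response in stimulation buffer with Tween 80 for 60 min at 37° C. cAMP read by HTRF (665/620 nm ratio), normalised to Max/Min controls; EC50 and Max activity from 4-parameter fit.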

Compound | Emax | pEC50
O=C(NCCCCCS(=O)(=O)O)C1CN(C(=O)Cc2ccc(OCCCC3CCN(c4ncc(Cl)cn4)CC3)cc2F)C1 [Example 174, 5-[[1-[2-[4-[3-[1-(5-chloropyrimidin-2-yl)-4-piperidyl]propoxy]-2-fluoro-phenyl]acetyl]azetidine-3-carbonyl]amino]pentane-1-sulfonic acid] | 100 to 130% | 6.00 to 7.00
O=C(CC1CN(C(=O)Cc2c(F)cc(OCCCC3CCN(c4ncc(Cl)cn4)CC3)cc2F)C1)NCC(O)(CO)CO [Example 34, 2-[1-[2-[4-[3-[1-(5-chloropyrimidin-2-yl)-4-piperidyl]propoxy]-2,6-difluoro-phenyl]acetyl]azetidin-3-yl]-N-[2,3-dihydroxy-2-(hydroxymethyl)propyl]acetamide] | ≥ 130% | ≥ 7.00
O=C(Cc1ccc(OCCC2CCC23CCN(c2ncc(Cl)cn2)CC3)cc1F)N1CC(CNC[C@H](O)[C@@H](O)[C@H](O)[C@H](O)CO)C1 (stereo partly drawn) [Example 138, 2-[4-[2-[7-(5-chloropyrimidin-2-yl)-7-azaspiro[3.5]nonan-3-yl]ethoxy]-2-fluoro-phenyl]-1-[3-[[[(2S,3R,4R,5R)-2,3,4,5,6-pentahydroxyhexyl]amino]methyl]azetidin-1-yl]ethanone] | 50 to 100% | 5.00 to 6.00
CCCc1cnc(N2CCC(CCCOc3cc(F)c(CC(=O)N4CC(CNCCNC(=O)NC(CO)(CO)CO)C4)c(F)c3)CC2)nc1 [Example 77, 1-(2-(((1-(2-(2,6-difluoro-4-(3-(1-(5-propylpyrimidin-2-yl)piperidin-4-yl)propoxy)phenyl)acetyl)azetidin-3-yl)methyl)amino)ethyl)-3-(1,3-dihydroxy-2-(hydroxymethyl)propan-2-yl)urea] | ≥ 130% | 6.00 to 7.00
O=C(Cc1ccc(OCCCC2CCN(c3ncc(CO)cn3)CC2)cc1F)N1CC(CNC[C@H](O)[C@@H](O)[C@H](O)[C@H](O)CO)C1 [Example 93, 2-[2-fluoro-4-[3-[1-[5-(hydroxymethyl)pyrimidin-2-yl]-4-piperidyl]propoxy]phenyl]-1-[3-[[[(2S,3R,4R,5R)-2,3,4,5,6-pentahydroxyhexyl]amino]methyl]azetidin-1-yl]ethanone] | 50 to 100% | 5.00 to 6.00
COCc1cnc(N2CCC(CCCCOc3ccc(CC(=O)N4CC(CNC[C@H](O)[C@@H](O)[C@H](O)[C@H](O)CO)C4)c(F)c3)CC2)nc1 (racemic) [Example 84, 2-[2-fluoro-4-[4-[1-[5-(methoxymethyl)pyrimidin-2-yl]-4-piperidyl]butoxy]phenyl]-1-[3-[[[rac-(2S,3R,4R,5R)-2,3,4,5,6-pentahydroxyhexyl]amino]methyl]azetidin-1-yl]ethanone] | 100 to 130% | 6.00 to 7.00
O=C(Cc1ccc(OCCCC2CCN(c3ncc(Cl)cn3)CC2)cc1F)NCCC(=O)NC(CO)CO [Example 19, 3-[[2-[4-[3-[1-(5-chloropyrimidin-2-yl)-4-piperidyl]propoxy]-2-fluoro-phenyl]acetyl]amino]-N-[2-hydroxy-1-(hydroxymethyl)ethyl]propanamide] | 100 to 130% | 6.00 to 7.00
COCc1cnc(N2CCC([C@H]3C[C@H]3CCOc3ccc(CC(=O)N4CC(CNC[C@H](O)[C@@H](O)[C@H](O)[C@H](O)CO)C4)c(F)c3)CC2)nc1 (mixture of isomers) [Example 97, 2-[2-fluoro-4-[2-[rac-(1S,2R)-2-[1-[5-(methoxymethyl)pyrimidin-2-yl]-4-piperidyl]cyclopropyl]ethoxy]phenyl]-1-[3-[[[(2S,3R,4R,5R)-2,3,4,5,6-pentahydroxyhexyl]amino]methyl]azetidin-1-yl]ethanone] | 100 to 130% | 6.00 to 7.00
O=C(Cc1ccc(OCCCC2CCN(c3ncc(Cl)cn3)CC2)cc1F)NCCCCCC(=O)NC(CO)(CO)CO [Example 18, 6-[[2-[4-[3-[1-(5-chloropyrimidin-2-yl)-4-piperidyl]propoxy]-2-fluoro-phenyl]acetyl]amino]-N-[2-hydroxy-1,1-bis(hydroxymethyl)ethyl]hexanamide] | 100 to 130% | 6.00 to 7.00
O=C(Cc1ccc(OCC2CC(C3CCN(c4ncc(Cl)cn4)CC3)C2)cc1F)N1CC(CNC[C@H](O)[C@@H](O)[C@H](O)[C@H](O)CO)C1 (stereo partly drawn) [Example 120, 2-[4-[ [3-[1-(5-chloropyrimidin-2-yl)-4-piperidyl]cyclobutyl]methoxy]-2-fluoro-phenyl]-1-[3-[[[(2S,3R,4R,5R)-2,3,4,5,6-pentahydroxyhexyl]amino]methyl]azetidin-1-yl]ethanone] | 100 to 130% | ≥ 7.00
COCc1cnc(N2CCC(CCCOc3cc(F)c(CC(=O)N4CC[C@@H](CNCC(CO)(CO)CO)C4)c(F)c3)CC2)nc1 [Example 160, 2-[2,6-difluoro-4-[3-[1-[5-(methoxymethyl)pyrimidin-2-yl]-4-piperidyl]propoxy]phenyl]-1-[(3S)-3-[[[3-hydroxy-2,2-bis(hydroxymethyl)propyl]amino]methyl]pyrrolidin-1-yl]ethanone] | ≥ 130% | ≥ 7.00
O=C(Cc1ccc(OCCCC2CCN(c3ncc(Cl)cn3)CC2)cc1F)N1CCC(O)(CNCC(CO)(CO)CO)C1 (stereo not drawn) [Example 180, 2-[4-[3-[1-(5-chloropyrimidin-2-yl)-4-piperidyl]propoxy]-2-fluoro-phenyl]-1-[3-hydroxy-3-[[[3-hydroxy-2,2-bis(hydroxymethyl)propyl]amino]methyl]pyrrolidin-1-yl]ethanone] | 100 to 130% | ≥ 7.00
O=C(NCC(O)(CO)CO)C1CN(C(=O)Cc2ccc(OCCCC3CCN(c4ncc(Cl)cn4)CC3)cc2F)C1 [Example 30, 1-[2-[4-[3-[1-(5-chloropyrimidin-2-yl)-4-piperidyl]propoxy]-2-fluoro-phenyl]acetyl]-N-[2,3-dihydroxy-2-(hydroxymethyl)propyl]azetidine-3-carboxamide] | 100 to 130% | ≥ 7.00
O=C(Cc1ccc(COCC2CC3(CCN(c4ncc(Cl)cn4)CC3)C2)cc1F)N1CC(CNC[C@H](O)[C@@H](O)[C@H](O)[C@H](O)CO)C1 [Example 107] | 100 to 130% | 5.00 to 6.00
CCc1cnc(N2CCC(CCCOc3cc(F)c(CC(=O)N4CC(CNCCNC(=O)NC(CO)(CO)CO)C4)c(F)c3)CC2)nc1 [Example 68, 1-(1,3-dihydroxy-2-(hydroxymethyl)propan-2-yl)-3-(2-(((1-(2-(4-(3-(1-(5-ethylpyrimidin-2-yl)piperidin-4-yl)propoxy)-2,6-difluorophenyl)acetyl)azetidin-3-yl)methyl)amino)ethyl)urea] | ≥ 130% | ≥ 7.00
COC(=O)c1cnc(N2CCC(CCCOc3ccc(CC(=O)N4CC(CNC[C@H](O)[C@@H](O)[C@H](O)[C@H](O)CO)C4)c(F)c3)CC2)nc1 [Example 87, methyl 2-[4-[3-[3-fluoro-4-[2-oxo-2-[3-[[[(2S,3R,4R,5R)-2,3,4,5,6-pentahydroxyhexyl]amino]methyl]azetidin-1-yl]ethyl]phenoxy]propyl]-1-piperidyl]pyrimidine-5-carboxylate] | 100 to 130% | 6.00 to 7.00
O=C(Cc1c(F)cc(OCCCC2CCN(C(=O)OC3(C(F)(F)F)COC3)CC2)cc1F)N1CC(CNC[C@H](O)[C@@H](O)[C@H](O)[C@H](O)CO)C1 [Example 126, [3-(trifluoromethyl)oxetan-3-yl] 4-[3-[3,5-difluoro-4-[2-oxo-2-[3-[[[(2S,3R,4R,5R)-2,3,4,5,6-pentahydroxyhexyl]amino]methyl]azetidin-1-yl]ethyl]phenoxy]propyl] piperidine-1-carboxylate] | 100 to 130% | 6.00 to 7.00
O=C(CC1CN(C(=O)Cc2ccc(OCCCC3CCN(c4ncc(Cl)cn4)CC3)cc2F)C1)NC(CO)(CO)CO [Example 32, 2-[1-[2-[4-[3-[1-(5-chloropyrimidin-2-yl)-4-piperidyl]propoxy]-2-fluoro-phenyl]acetyl]azetidin-3-yl]-N-[2-hydroxy-1,1-bis(hydroxymethyl)ethyl]acetamide] | 100 to 130% | 6.00 to 7.00
O=C(Cc1c(F)cc(OCCCC2CCN(c3ncc(Cl)cn3)CC2)cc1F)N1CC[C@@H](CNC(CO)(CO)CO)C1 [Example 149, 2-[4-[3-[1-(5-chloropyrimidin-2-yl)-4-piperidyl]propoxy]-2,6-difluoro-phenyl]-1-[(3S)-3-[[[2-hydroxy-1,1-bis(hydroxymethyl)ethyl]amino]methyl]pyrrolidin-1-yl]ethanone] | ≥ 130% | ≥ 7.00
O=C(Cc1ccc(COCC2CC23CCN(c2ncc(Cl)cn2)CC3)cc1F)N1CC(CNC[C@H](O)[C@@H](O)[C@H](O)[C@H](O)CO)C1 (stereo partly drawn) [Example 111, 2-[4-[[6-(5-chloropyrimidin-2-yl)-6-azaspiro[2.5]octan-2-yl]methoxymethyl]-2-fluoro-phenyl]-1-[3-[[[(2S,3R,4R,5R)-2,3,4,5,6-pentahydroxyhexyl]amino]methyl]azetidin-1-yl]ethanone] | 50 to 100% | 5.00 to 6.00
O=C(Cc1c(F)cc(OCCCC2CCN(c3ncc(Cl)cn3)CC2)cc1F)N1CC[C@@H](CNC[C@H](O)[C@@H](O)[C@H](O)[C@H](O)CO)C1 [Example 132, 2-[4-[3-[1-(5-chloropyrimidin-2-yl)-4-piperidyl]propoxy]-2,6-difluoro-phenyl]-1-[(3S)-3-[[[(2S,3R,4R,5R)-2,3,4,5,6-pentahydroxyhexyl]amino]methyl]pyrrolidin-1-yl]ethanone] | 100 to 130% | ≥ 7.00

— US20230061736A1, “GPR119 AGONISTS” (Kallyope, Inc., priority 2019, published 2023)
